Measured values from publication PMC10477886, “Adamantaniline Derivatives Target ATP5B to Inhibit Translation of Hypoxia Inducible Factor‐1α” (Advanced Science, 2023).

Tests used:
[1] = system: HIF‐1α and HIF‐1β mRNA expression; experiment: RT‐qPCR of HIF‐1α and HIF‐1β mRNA; format: cell-based, human
Excerpt: The whole protein synthesis process can be divided into four major steps: transcription, translation, posttranslational modifications and folding to a mature protein, and protein secretion.^[ [52] ^] We then investigated the potential effects of HI‐101 on HIF‐1α transcription and translation. […] On the basis of the existing experimental results, we draw a conclusion that HI‐101 inhibited the synthesis of nascent HIF‐1α protein without affecting its transcription.
Total RNA was isolated using Trizol reagent (Invitrogen). Complementary DNA was synthesized using a Reverse Transcriptase reagent (Promega). Fluorescence real‐time PCR was performed with the double‐stranded DNA dye SYBR Master Mix (Roche Diagnostics Corporation, Indianapolis, IN, USA) and the Applied Biosystems Step One Plus detection system (ABI 7900). The upstream and downstream gene‐specific primers were as follows. • HIF‐1α sense: 5′‐[…]‐3′, • HIF‐1α antisense: 5′‐[…]‐3′; • HIF‐1β sense: 5′‐[…]‐3′, • HIF‐1β antisense:5′‐[…]‐3′; • VEGF sense: 5′‐[…]‐3′, • VEGF antisense: 5′‐[…]‐3′; • PDK1 sense:5′‐[…]‐3′, • PDK1 antisense:5′‐GGAGGTCTCAACACGAGGT‐3′; • β‐actin sense: 5′‐[…]‐3′, • β‐actin antisense: 5′‐[…]‐3′; • ATP5D sense:5′‐ […]‐3′, • ATP5D antisense: 5′‐[…]‐3′; • ATP5E sense: 5′‐ […]‐3′, • ATP5E antisense:5′‐[…]‐3′; • ATP5F1 sense: 5′‐ […]‐3′, • ATP5F1 antisense:5′‐[…]‐3′.

F1‐ATP synthase complex = F1‐ATP synthase complex (Sus scrofa, UniProt K7GLT8+P80021); experiment: fluorescence polarization binding assay; design: species or system pig; details: F1‐ATPase 30 nM, HI‐103 4 nM, competitor 1 μM
Excerpt: ATP5A and ATP5B are important components of FOF1–ATP synthase, also known as ATP synthase, which is a protein complex that catalyzes ATP synthesis by utilizing energy from the translocation of protons across biological membranes.^[ [40] ^] FOF1‐ATP synthase consists of two domains: the membrane‐spanning domain, FO, which acts as a proton channel, and the soluble catalytic domain, F1, which synthesizes ATP and is composed of nine subunits(α 3 β 3 γδɛ).^[ [41], [42], [43], [44] ^] […] To verify whether HI‐101 targeted ATP5A and ATP5B, we knocked down the subunits of F1 domains separately by shRNA.
F1‐ATPase at indicated concentrations was incubated with HI‐103 (4 nM), bodipy‐1 was as a negative molecule, conduct the experiment after incubating in 96‐well microplates of black polystyrene for 10 min. The FP results were analyzed with GraphPad Prism 9.0.

[2] = system: HIF‐1α transcriptional activity; experiment: dual‐luciferase assay (HRE‐Firefly Luciferase / renilla) of HIF‐1α transcriptional activity in HEK293T cells; format: cell-based, human
Method in brief: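 Stable HEK293T line carrying HRE-firefly luciferase, renilla and HIF-1α P402A/P564A mutant, giving HIF-1α expression under normoxia. Compounds incubated 24 h at 37 °C; firefly/renilla luciferase ratio read as HIF-1α transcriptional activity.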

IC50 ([2]; Homo sapiens, HEK-293T, HEK293T dual‐luciferase, mean ± s.d. (n = 3)): 2000 ± 300 nM
Structure (SMILES): O=C(Nc1ccc(C23CC4CC(CC(C4)C2)C3)cc1)c1cccc(Cl)c1 [1‐3a, N‐(4‐((3r,5r,7r)‐Adamantan‐1‐yl)Phenyl)−3‐Chlorobenzamide]
HIF‐1α and HIF‐1β mRNA expression [1]: did not affect HIF‐1α and HIF‐1β mRNA expression
competitive fluorescence polarization binding (F1‐ATP synthase complex): bound to F1‐ATP synthase complex in a similar way as HI‐103
inhibition at 10 µM ([2]; Homo sapiens, HEK-293T, 10 µM, incubation 24 h, HEK293T, mean ± s.d. (n = 3), read-out: Inhibition rate [%] @ 10 µM): 81.4 ± 0.9%
HIF‐1α transcriptional activity (luciferase), in words ([2]; hit confirmation): significantly inhibited HIF‐1α transcriptional activity
